Results reported in BindingDB's records for doi:10.1021/jm00020a029 (Merck Research Laboratories, 1995).
Where a SMILES comes first, the peptide text is derived from it. [ ]: non-standard residue; d: D form. Phe(4-F) = N[C@@H](Cc1ccc(F)cc1)C(=O)O; hArg = N=C(N)NCCCC[C@H](N)C(=O)O; Aib = CC(C)(N)C(=O)O

Assay: Evaluated for the activation of human thrombin receptor measured by platelet aggregation

Structure (SMILES) | EC50
CC(=O)N[C@@H](Cc1ccccc1)C(=O)N[C@@H](CC(C)C)C(=O)N[C@@H](CC(C)C)C(=O)N[C@@H](CCCNC(=N)N)C(N)=O [(S)-2-((S)-2-Acetylamino-3-phenyl-propionylamino)-4-methyl-pentanoic acid [(S)-1-((S)-1-carbamoyl-4-guanidino-butylcarbamoyl)-3-methyl-butyl]-amide] (Ac-FLLR-NH2) | 200 µM
CC(C)C[C@H](NC(=O)[C@H](CC(C)C)NC(=O)[C@@H](N)Cc1ccccc1)C(=O)N[C@@H](CCCNC(=N)N)C(N)=O [(S)-2-((S)-2-Amino-3-phenyl-propionylamino)-4-methyl-pentanoic acid [(S)-1-((S)-1-carbamoyl-4-guanidino-butylcarbamoyl)-3-methyl-butyl]-amide] (H-FLLR-NH2) | > 800 µM
CC(C)C[C@H](NC(=O)[C@H](CC(C)C)NC(=O)[C@H](Cc1ccc(F)cc1)NC(=O)[C@H](C)N)C(=O)N[C@@H](CCCCNC(=N)N)C(N)=O [(S)-2-((S)-2-{(S)-2-[(S)-2-((S)-2-Amino-propionylamino)-3-(4-fluoro-phenyl)-propionylamino]-4-methyl-pentanoylamino}-4-methyl-pentanoylamino)-6-guanidino-hexanoic acid amide] (H-A[Phe(4-F)]LL[hArg]-NH2) | 0.12 µM
NC(=O)[C@H](Cc1ccccc1)NC(=O)[C@@H](N)CO [(S)-2-Amino-N-((S)-1-carbamoyl-2-phenyl-ethyl)-3-hydroxy-propionamide] | > 800 µM
CC(C)C[C@H](NC(=O)[C@H](CC(C)C)NC(=O)[C@H](Cc1ccccc1)NC(=O)C(C)(C)N)C(=O)N[C@@H](CCCNC(=N)N)C(N)=O [(S)-2-[(S)-2-(2-Amino-2-methyl-propionylamino)-3-phenyl-propionylamino]-4-methyl-pentanoic acid [(S)-1-((S)-1-carbamoyl-4-guanidino-butylcarbamoyl)-3-methyl-butyl]-amide] (H-[Aib]FLLR-NH2) | 415 µM

More lines, now with the values ahead:

EC50 | Structure (SMILES)
0.5 µM | CC(C)C[C@H](NC(=O)[C@H](CC(C)C)NC(=O)[C@H](Cc1ccccc1)NC(=O)[C@@H](N)CO)C(=O)N[C@@H](CCCN=C(N)N)C(=O)N[C@@H](CC(N)=O)C(=O)N1CCC[C@H]1C(N)=O [1-{(S)-2-[(S)-2-((S)-2-{(S)-2-[(S)-2-((S)-2-Amino-3-hydroxy-propionylamino)-3-phenyl-propionylamino]-4-methyl-pentanoylamino}-4-methyl-pentanoylamino)-5-guanidino-pentanoylamino]-3-carbamoyl-propionyl}-pyrrolidine-2-carboxylic acid amide] (H-SFLLRNP-NH2)
> 800 µM | CC(C)C[C@H](NC(=O)[C@@H](CC(C)C)NC(=O)[C@H](Cc1ccccc1)NC(=O)[C@@H](N)CO)C(=O)N[C@@H](CCCNC(=N)N)C(N)=O [(R)-2-[(S)-2-((S)-2-Amino-3-hydroxy-propionylamino)-3-phenyl-propionylamino]-4-methyl-pentanoic acid [(S)-1-((S)-1-carbamoyl-4-guanidino-butylcarbamoyl)-3-methyl-butyl]-amide]
> 1200 µM | CC(C)C[C@H](NC(=O)[C@H](CC(C)C)NC(=O)[C@H](Cc1ccccc1)NC(=O)[C@@H](N)CCCNC(=N)N)C(=O)N[C@@H](CCCNC(=N)N)C(N)=O [(S)-2-Amino-5-guanidino-pentanoic acid ((S)-1-{(S)-1-[(S)-1-((S)-1-carbamoyl-4-guanidino-butylcarbamoyl)-3-methyl-butylcarbamoyl]-3-methyl-butylcarbamoyl}-2-phenyl-ethyl)-amide] (H-RFLLR-NH2)
> 800 µM | CC(C)C[C@H](NC(=O)[C@H](CC(C)C)NC(=O)[C@@H](Cc1ccccc1)NC(=O)[C@@H](N)CO)C(=O)N[C@@H](CCCNC(=N)N)C(N)=O [(S)-2-[(R)-2-((S)-2-Amino-3-hydroxy-propionylamino)-3-phenyl-propionylamino]-4-methyl-pentanoic acid [(S)-1-((S)-1-carbamoyl-4-guanidino-butylcarbamoyl)-3-methyl-butyl]-amide]
